Laboratory results reported in patent US11401279B2, “Pyrido[3,2-d]pyrimidine compounds as immunomodulators” (Incyte Corporation, priority 2019, dated 2022).

What was measured:
PD-1/PD-L1 = PD-1/PD-L1 (Homo sapiens (Human), UniProt Q9NZQ7); assay: Homogeneous Time-Resolved Fluorescence (HTRF) PD-1/PD-L1 binding assay; conditions: recombinant human PD-1 and PD-L1
Experimental: The assays were conducted in a standard black 384-well polystyrene plate with a final volume of 20 μL. Inhibitors were first serially diluted in DMSO and then added to the plate wells before the addition of other reaction components. The final concentration of DMSO in the assay was 1%. The assays were carried out at 25° C. in the PBS buffer (pH 7.4) with 0.05% Tween-20 and 0.1% BSA. Recombinant human PD-L1 protein (19-238) with a His-tag at the C-terminus was purchased from AcroBiosystems (PD1-H5229). Recombinant human PD-1 protein (25-167) with Fc tag at the C-terminus was also purchased from AcroBiosystems (PD1-H5257). PD-L1 and PD-1 proteins were diluted in the assay buffer and 10 μL was added to the plate well. Plates were centrifuged and proteins were preincubated with inhibitors for 40 minutes. The incubation was followed by the addition of 10 μL of HTRF detection buffer supplemented with Europium cryptate-labeled anti-human IgG (PerkinElmer-AD0212) specific for Fc and anti-His antibody conjugated to SureLight®-Allophycocyanin (APC, PerkinElmer-AD0059H). After centrifugation, the plate was incubated at 25° C. for 60 min. before reading on a PHERAstar FS plate reader (665 nm/620 nm ratio). Final concentrations in the assay were—3 nM PD1, 10 nM PD-L1, 1 nM europium anti-human IgG and 20 nM anti-His-Allophycocyanin. IC50 determination was performed by fitting the curve of percent control activity versus the log of the inhibitor concentration using the GraphPad Prism 5.0 software.

[1] = test system: U2OS/PD-L1 cells and Jurkat-PD-1-SHP cells; assay: Src homology region 2 domain-containing phosphatase (SHP) assay; format: cell-based; conditions: Homo sapiens, U2OS; PathHunter chemiluminescence, 2 hours
Experimental: U2OS/PD-L1 cells (DiscoveRx Corporation) were maintained in McCoy's 5A medium with addition of 10% FBS, 0.25 μg/mL Puromycin. After removing the culture media, the cell medium was replaced with assay medium (RPMI1640 medium with 1% FBS). The U2OS/PD-L1 cells were then added in 384-well black clear bottom assay plate (CELLCOAT® Tissue Culture Plates, Greiner Bio-One) at 5000 cells per well in 20 μL assay medium. Test compounds were prepared by serial dilution in DMSO and 125 nL compound were first transferred to the 384 REMP plate well (Thermofisher) by ECHO liquid handler (Labcyte) followed with addition of 27.5 μL assay medium. 5 µL/well compounds in the assay medium were transferred to the cell plate with 0.05% DMSO in the final assay at 0.25 μM. Jurkat-PD-1-SHP cells (DiscoveRx Corporation) were cultured in RPMI1640 medium supplemented with 10% FBS, 250 μg/mL Hygromycin B, 500 μg/mL G418. After the replacement of culture media with assay medium, 5,000 Jurkat-PD-1-SHP cells in 20 μL were dispensed into each well. The assay plate was incubated at 37° C., 5% CO2 for 2 hours before 2.5 μL PathHunter reagent 1 (DiscoveRx Corporation) were added to each well. The assay plate was shaken for 1 min at 350 rpm in the dark followed with addition of 10 μL PathHunter reagent 2 (DiscoveRx Corporation). Chemiluminescent signal was recorded with TopCount reader (Perkin Elmer) after incubation at room temperature for 1 hour. Wells with DMSO were served as the positive controls and wells containing no cells were used as negative controls. IC50 determination was performed by fitting the curve of percentage of control activity versus the log of the compound concentration using the GraphPad Prism 6.0 software.

[2] = test system: PD-L1 aAPC/CHO-K1 cells and Jurkat-PD-1-NFAT effector cells; assay: Nuclear factor of activated T-cells (NFAT) assay; format: cell-based; conditions: Cricetulus griseus, CHO-K1; luminescence, 24 hours
Experimental: PD-L1 aAPC/CHO-Klcells (Promega) were maintained in F-12 medium with addition of 10% FBS, 200 μg/mL Hygromycin B, 250 μg/mL Geneticin (G418). Jurkat-PD-1-NFAT effector cells (Promega) were cultured in RPMI 1640 medium supplemented with 10% FBS, 100 μg/mL Hygromycin B, 500 μg/mL G418. The culture media of PD-L1 aAPC/CHO-K1 cells were first replaced with assay medium (RPMI1640 medium with 1% FBS). The PD-L1 aAPC/CHO-Klcells were then added in a white 384-well white clear bottom assay plate (CELLCOAT® Tissue Culture Plates, Greiner Bio-One) at 8000 per well in 10 μL assay medium. Test compounds were prepared by serial dilution in DMSO and 0.8 μL test compounds in DMSO were first transferred to the 384 REMP plate well (Thermofisher) by PlateMate Plus (Thermofisher) followed with addition of 50 μL plating medium. 5 μL compounds in the assay medium were transferred to the cells with 0.4% DMSO in the final assay at 2 μM. After removing the culture media, 10,000 Jurkat-PD-1-NFAT effector cells in 5 μL assay medium was dispensed into each well. The assay plate was incubated at 37° C., 5% CO2 for 24 hours. After the assay plate was equilibrated to room temp for 15 minutes, 20 μL/well of Bio-Glo™ reagent (Promega) were added. After 8 minutes incubation at room temperature, luminescence was read at with Pherastar microplate reader (BMG Labtech). The fold of induction (FOI) was calculated based on the ratio of luminescence normalized to the DMSO wells within each assay plate. The maximum percentage of induction was reported based on the ratio between the highest FOI of each compound and the maximum FOI of control compound within each assay plate. Wells with DMSO were served as the negative controls and wells containing control compound with the highest FOI were used as positive controls. EC50 determination was performed by fitting the curve of percent control activity versus the log of the compound concentration using the GraphPad Prism 6.0 software.

PD-L1 = PD-L1 (Homo sapiens (Human), UniProt Q9NZQ7); assay: PD-L1 whole blood internalization assay; format: cell-based; conditions: PD-L1 internalization in human whole blood, CD14+ cells, interferon γ, 24 hour
Experimental: To determine PD-L1 internalization in human whole blood, normal human blood (Biological Specialty Corp, Colmar. Pa.) was incubated in the presence or absence of a concentration range of test compounds and 1 ng/mL human interferon γ (R&D Systems Inc. Minn. […] Blood was then stained with PD-L1 (MIH1, eBioscience; or BD Biosciences San Jose, Calif.), CD14 (Life Technologies, Carlsbad, Calif.) for 30 minutes in the dark at room temperature. Whole Blood/red cells were lysed/fixed (lysis buffer BD Biosciences) for 5 minutes at 37° C. in the dark and then centrifuged at 1600 RPM for 5 minutes. Cells were resuspended in Stain Buffer (BD Bioscience, San Jose, Calif.) and transferred into 96 well round bottom plates (Corning). Cells were gated on CD14+(BD Biosciences) and PD-L1 expression determined by mean fluorescence intensity (MFI) (BD LSRFortessa™ X-20). IC50 determination was performed by fitting the curve of compound percent inhibition versus the log of the compound concentration using the GraphPad Prism 7.0 software.

Chain of PD-1/PD-L1 (Q9NZQ7 19-238): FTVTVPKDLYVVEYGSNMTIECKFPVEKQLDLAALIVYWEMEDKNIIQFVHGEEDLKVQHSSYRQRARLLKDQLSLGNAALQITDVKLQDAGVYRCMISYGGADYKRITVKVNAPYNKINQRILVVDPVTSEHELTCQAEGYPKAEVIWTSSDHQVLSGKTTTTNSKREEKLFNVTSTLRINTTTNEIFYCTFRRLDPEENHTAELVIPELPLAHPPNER
Chain of PD-L1 (Q9NZQ7 19-290): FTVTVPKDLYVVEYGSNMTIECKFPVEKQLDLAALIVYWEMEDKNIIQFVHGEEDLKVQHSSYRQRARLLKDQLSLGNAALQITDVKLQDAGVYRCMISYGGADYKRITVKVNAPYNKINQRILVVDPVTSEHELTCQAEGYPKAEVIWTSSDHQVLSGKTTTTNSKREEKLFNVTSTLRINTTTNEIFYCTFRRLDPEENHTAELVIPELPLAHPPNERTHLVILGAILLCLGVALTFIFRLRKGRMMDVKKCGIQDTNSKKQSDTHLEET

IC50 (PD-1/PD-L1) [nM]	IC50 [1] [nM]	IC50 (PD-L1) [nM]	SMILES	EC50 [2] [nM]
1.5	4	35	Cc1c(Nc2nc(C(F)F)nc3cc(CN4C[C@H](O)C[C@@H]4C)cnc23)cccc1-c1cccc(NC(=O)c2nc3c(n2C)CCN(CCC24CCC(C(=O)O)(CC2)C4)C3)c1Cl [Example 10, 4-(2-(2-((2-chloro-3′-((2-(difluoromethyl)-7-(((2S,4R)-4-hydroxy-2-methylpyrrolidin-1-yl)methyl)pyrido[3,2-d]pyrimidin-4-yl)amino)-2′-methyl-[1,1′-biphenyl]-3-yl)carbamoyl)-1-methyl-1,4,6,7-tetrahydro-5H-imidazo[4,5-c]pyridin-5-yl)ethyl)bicyclo[2.2.1]heptane-1-carboxylic Acid]	4
1.5	3	27	Cc1c(Nc2nc(C(F)F)nc3cc(CN4C[C@H](O)C[C@H]4C)cnc23)cccc1-c1cccc(NC(=O)c2nc3c(n2C)CCN(CCC24CCC(C(=O)O)(CC2)C4)C3)c1Cl [Example 11, 4-(2-(2-((2-chloro-3′-((2-(difluoromethyl)-7-(((2R,4R)-4-hydroxy-2-methylpyrrolidin-1-yl)methyl)pyrido[3,2-d]pyrimidin-4-yl)amino)-2′-methyl-[1,1′-biphenyl]-3-yl)carbamoyl)-1-methyl-1,4,6,7-tetrahydro-5H-imidazo[4,5-c]pyridin-5-yl)ethyl)bicyclo[2.2.1]heptane-1-carboxylic Acid]	5
1.5	3	30	Cc1c(Nc2nc(C(F)F)nc3cc(CN4C[C@@H](O)C[C@H]4C)cnc23)cccc1-c1cccc(NC(=O)c2nc3c(n2C)CCN(CCC24CCC(C(=O)O)(CC2)C4)C3)c1Cl [Example 12, 4-(2-(2-((2-chloro-3′-((2-(difluoromethyl)-7-(((2R,4S)-4-hydroxy-2-methylpyrrolidin-1-yl)methyl)pyrido[3,2-d]pyrimidin-4-yl)amino)-2′-methyl-[1,1′-biphenyl]-3-yl)carbamoyl)-1-methyl-1,4,6,7-tetrahydro-5H-imidazo[4,5-c]pyridin-5-yl)ethyl)bicyclo[2.2.1]heptane-1-carboxylic Acid]	41
1.8	3	24	Cc1c(Nc2nc(C(F)F)nc3cc(CN4CC(O)C4)cnc23)cccc1-c1cccc(NC(=O)c2nc3c(n2C)CCN(CCC24CCC(C(=O)O)(CC2)C4)C3)c1Cl [Example 13, 4-(2-(2-((2-chloro-3′-((2-(difluoromethyl)-7-((3-hydroxyazetidine-1-yl)methyl)pyrido[3,2-d]pyrimidin-4-yl)amino)-2′-methyl-[1,1′-biphenyl]-3-yl)carbamoyl)-1-methyl-1,4,6,7-tetrahydro-5H-imidazo[4,5-c]pyridin-5-yl)ethyl)bicyclo[2.2.1]heptane-1-carboxylic Acid]	3
1.7	3	20	Cc1c(Nc2nc(C(F)F)nc3cc(CN4CC(C)(O)C4)cnc23)cccc1-c1cccc(NC(=O)c2nc3c(n2C)CCN(CCC24CCC(C(=O)O)(CC2)C4)C3)c1Cl [Example 14, 4-(2-(2-((2-chloro-3′-((2-(difluoromethyl)-7-((3-hydroxy-3-methylazetidin-1-yl)methyl)pyrido[3,2-d]pyrimidin-4-yl)amino)-2′-methyl-[1,1′-biphenyl]-3-yl)carbamoyl)-1-methyl-1,4,6,7-tetrahydro-5H-imidazo[4,5-c]pyridin-5-yl)ethyl)bicyclo[2.2.1]heptane-1-carboxylic Acid]	3
1.5	2.9	57	Cc1c(NC(=O)c2nc3c(n2C)CCN(CCC24CCC(C(=O)O)(CC2)C4)C3)cccc1-c1cccc(Nc2nc(C(F)F)nc3cc(CN4CC[C@H](O)C4)cnc23)c1C [Example 15, (S)-4-(2-(2-((3′-((2-(difluoromethyl)-7-((3-hydroxypyrrolidin-1-yl)methyl)pyrido[3,2-d]pyrimidin-4-yl)amino)-2,2′-dimethyl-[1,1′-biphenyl]-3-yl)carbamoyl)-1-methyl-1,4,6,7-tetrahydro-5H-imidazo[4,5-c]pyridin-5-yl)ethyl)bicyclo[2.2.1]heptane-1-carboxylic Acid]	9
1.7	2.4	53	Cc1c(NC(=O)c2nc3c(n2C)CCN(CCC24CCC(C(=O)O)(CC2)C4)C3)cccc1-c1cccc(Nc2nc(C(F)F)nc3cc(CN4CC[C@](C)(O)C4)cnc23)c1C [Example 16, (S)-4-(2-(2-((3′-((2-(difluoromethyl)-7-((3-hydroxy-3-methylpyrrolidin-1-yl)methyl)pyrido[3,2-d]pyrimidin-4-yl)amino)-2,2′-dimethyl-[1,1′-biphenyl]-3-yl)carbamoyl)-1-methyl-1,4,6,7-tetrahydro-5H-imidazo[4,5-c]pyridin-5-yl)ethyl)bicyclo[2.2.1]heptane-1-carboxylic Acid]	6
3.4	4.9	178	Cc1c(NC(=O)c2nc3c(n2C)CCN(C)C3)cccc1-c1cccc(NC(=O)c2nc3c(n2C)CCN(CC24CCC(C(=O)O)(CC2)C4)C3)c1Cl [Example 119, reference compound]	82
2.9	17	732	CCN1CCc2c(nc(C(=O)Nc3cccc(-c4cccc(NC(=O)c5nc6c(n5C)CCN(CC57CCC(C(=O)O)(CC5)C7)C6)c4Cl)c3Cl)n2C)C1 [Example 176, reference compound]	122
